A word on the IC50: it is the concentration that gives 50% inhibition.

In this test the test system is MOLM-13 cells. Put plainly: MOLM-13 Cell Proliferation Assay (indicator of DHODH inhibition). In kind it is cell-based. As to conditions: Homo sapiens, 72 Hours of culture, CellTiter-Glo, no uridine. The method, then:
The following assay was conducted to measure proliferation of MOLM-13 cells in the presence of each compound studied. This assay was included as an indicator of DHODH inhibition, as growth of MOLM-13 cells is known to depend on synthesis of pyrimidines using the de novo pathway, which can be blocked by inhibition of DHODH. • 1. MOLM-13 cells were cultured in RPMI 1640 medium+10% Fetal Bovine Serum (FBS). Only low passage cells (<20) were used for the compound tests • 2. On day 1, Log-phase growing Molm-13 Cells were counted and diluted to 10^5 cells/mL in RPMI 1640 medium+10% FBS • 3. 100 μL of diluted MOLM-13 cells in 96 well white plates were seeded, for a final density of 10^4 cells/well. • 4. 0.5 μL of pre-diluted 200× compounds or DMSO control was added to each well. The final DMSO concentration was 0.5%. • 5. After 72 Hours of culture at 37° C., 5% CO2, the plates were taken out and cooled to RT, then 50 μL CellTiter-Glo® (Promega) was added, and the composition was mixed at RT for 10 minutes. • 6. The plates were then read by ViewLux (Speed-fast, Gain-High, Bining-1X, 5 seconds).

Consider `Cc1nc(C)nc(N2CCc3c([nH]c4ccc(Br)cc34)C2c2cnc(N3CCOCC3)nc2)n1` (stereo not drawn) [Compound 299, 6-bromo-2-(4,6-dimethyl-1,3,5-triazin-2-yl)-1-[2-(morpholin-4-yl)pyrimidin-5-yl]-2,3,4,9-tetrahydro-1H-pyrido[3,4-b]indole], for which half-maximal inhibition (IC50) was put at 6.8 nM.

`C=Cc1ccc2[nH]c3c(c2c1)CCN(c1nccc(C(F)(F)F)n1)C3c1ccc(C)cc1` (stereo not drawn) [Compound 291, 6-ethenyl-1-(4-methylphenyl)-2-[4-(trifluoromethyl)pyrimidin-2-yl]-2,3,4,9-tetrahydro-1H-pyrido[3,4-b]indole]: the half-inhibitory concentration (IC50) came out at 4.4 nM.

Compound `Cc1nc(N2CCc3c([nH]c4cc(F)c(Cl)cc34)C2c2ccc(/C=C/CCO)cc2)ncc1F` (stereo not drawn) [Compound 239, (3E)-4-{4-[6-chloro-7-fluoro-2-(5-fluoro-4-methylpyrimidin-2-yl)-2,3,4,9-tetrahydro-1H-pyrido[3,4-b]indol-1-yl]phenyl}but-3-en-1-ol] gave an IC50 of 2.5 nM.

`CCCCOC(=O)c1ccnc(N2CCc3c([nH]c4ccc(Cl)cc34)C2c2ccc(C)cc2)n1` (stereo not drawn) [Compound 280, butyl 2-[6-chloro-1-(4-methylphenyl)-1,3,4,9-tetrahydro-2H-pyrido[3,4-b]indol-2-yl]pyrimidine-4-carboxylate] registered a half-maximal inhibitory concentration (IC50) of 4.1 nM.

For the compound `Cc1ccc(C2c3[nH]c4cc(F)c(Cl)cc4c3CCN2c2nc(C)c(C)c(C)n2)c(F)c1F` (stereo not drawn) [Compound 169, 6-chloro-1-(2,3-difluoro-4-methylphenyl)-7-fluoro-2-(4,5,6-trimethylpyrimidin-2-yl)-2,3,4,9-tetrahydro-1H-pyrido[3,4-b]indole], inhibition was half-maximal at 2.2 nM (IC50).

As for `FC(F)(F)c1nc(N2CCOCC2)nc(N2CCc3c([nH]c4ccc(Cl)cc34)C2c2ccc(N3CCOCC3)nc2)n1` (stereo not drawn) [Compound 428, 6-chloro-1-[6-(morpholin-4-yl)pyridin-3-yl]-2-[4-(morpholin-4-yl)-6-(trifluoromethyl)-1,3,5-triazin-2-yl]-2,3,4,9-tetrahydro-1H-pyrido[3,4-b]indole], the half-inhibitory concentration (IC50) was 5.2 nM.

Take `Cc1nc(C)nc(N2CCc3c([nH]c4ccc(Cl)cc34)C2c2ccc(Cl)cc2F)n1` (stereo not drawn) [Compound 468, 6-chloro-1-(4-chloro-2-fluorophenyl)-2-(4,6-dimethyl-1,3,5-triazin-2-yl)-2,3,4,9-tetrahydro-1H-pyrido[3,4-b]indole]: half-maximal inhibition (IC50) was put at 5.2 nM.

Compound `CN(C)c1nc(N2CCc3c([nH]c4ccc(Cl)cc34)[C@@H]2c2cnc(N3CCOCC3)nc2)nc(C(F)(F)F)n1` [Compound 444, 4-{(1S)-6-chloro-1-[2-(morpholin-4-yl)pyrimidin-5-yl]-1,3,4,9-tetrahydro-2H-pyrido[3,4-b]indol-2-yl}-N,N-dimethyl-6-(trifluoromethyl)-1,3,5-triazin-2-amine] had an IC50 of 5.8 nM.

In turn, `Fc1ccc(C2c3[nH]c4ccc(Cl)c(F)c4c3CCN2c2ncc(Cl)cn2)cc1` (stereo not drawn) [Compound 49, 6-chloro-2-(5-chloropyrimidin-2-yl)-5-fluoro-1-(4-fluorophenyl)-2,3,4,9-tetrahydro-1H-pyrido[3,4-b]indole] came in with an IC50 of 21.2 nM.

In the case of `Cc1ccnc(N2CCc3c([nH]c4cc(F)c(Cl)cc34)C2c2ccc(F)cc2)n1` (stereo not drawn) [Compound 9, 6-chloro-7-fluoro-1-(4-fluorophenyl)-2-(4-methylpyrimidin-2-yl)-2,3,4,9-tetrahydro-1H-pyrido[3,4-b]indole], inhibition was half-maximal at 35.9 nM (IC50).

In the case of `FC(F)(F)c1cc(C(F)(F)F)nc(N2CCc3c([nH]c4ccc(Cl)cc34)[C@@H]2c2cnc(N3CCNC4(CC4)C3)nc2)n1` [Compound 512, (1S)-2-[4,6-bis(trifluoromethyl)pyrimidin-2-yl]-6-chloro-1-[2-(4,7-diazaspiro[2.5]octan-7-yl)pyrimidin-5-yl]-2,3,4,9-tetrahydro-1H-pyrido[3,4-b]indole], inhibition was half-maximal at 1.6 nM (IC50).

As for `Fc1cccc(C2c3[nH]c4ccc(Cl)cc4c3CCN2c2nccc(C(F)(F)F)n2)c1` (stereo not drawn) [Compound 371, 6-chloro-1-(3-fluorophenyl)-2-[4-(trifluoromethyl)pyrimidin-2-yl]-2,3,4,9-tetrahydro-1H-pyrido[3,4-b]indole], the half-maximal inhibitory concentration (IC50) is 8.8 nM.

The compound `COC(=O)CCc1ccc(C2c3[nH]c4cc(F)c(Cl)cc4c3CCN2c2ncc(F)cn2)cc1` (stereo not drawn) [Compound 165, methyl 3-{4-[6-chloro-7-fluoro-2-(5-fluoropyrimidin-2-yl)-2,3,4,9-tetrahydro-1H-pyrido[3,4-b]indol-1-yl]phenyl}propanoate] returned an IC50 of 16.7 nM.

On to `Cc1nc(C)nc(N2CCc3c([nH]c4ccc(Cl)cc34)C2c2ccc(N3C[C@@H]4C[C@H]3CO4)nc2)n1` (stereo partly drawn) [Compound 377, 6-chloro-2-(4,6-dimethyl-1,3,5-triazin-2-yl)-1-{6-[(1S,4S)-2-oxa-5-azabicyclo[2.2.1]heptan-5-yl]pyridin-3-yl}-2,3,4,9-tetrahydro-1H-pyrido[3,4-b]indole], for which the IC50 was 41.6 nM.

For the compound `CC(C)c1ccc(C2c3[nH]c4cc(F)c(Cl)cc4c3CCN2c2ncc(C(F)(F)F)cn2)cc1` (stereo not drawn) [Compound 99, 6-chloro-7-fluoro-1-[4-(propan-2-yl)phenyl]-2-[5-(trifluoromethyl)pyrimidin-2-yl]-2,3,4,9-tetrahydro-1H-pyrido[3,4-b]indole], it took 14 nM to reach half-maximal inhibition (IC50).

`Fc1ccc(C2c3[nH]c4ccc(Cl)cc4c3CCN2c2nccc(C(F)(F)F)n2)c(F)c1` (stereo not drawn) [Compound 423, 6-chloro-1-(2,4-difluorophenyl)-2-[4-(trifluoromethyl)pyrimidin-2-yl]-2,3,4,9-tetrahydro-1H-pyrido[3,4-b]indole]: the IC50 came to 6.1 nM.

In turn, `Cc1ccc(C2c3[nH]c4ccc(Cl)c(F)c4c3CCN2c2nc(C#N)cc(C#N)n2)c(F)c1F` (stereo not drawn) [Compound 229, 2-[6-chloro-1-(2,3-difluoro-4-methylphenyl)-5-fluoro-1,3,4,9-tetrahydro-2H-pyrido[3,4-b]indol-2-yl]pyrimidine-4,6-dicarbonitrile] had a 50% inhibitory concentration (IC50) of 1.9 nM.

In turn, `Cc1ccc([C@H]2c3[nH]c4ccc(Br)cc4c3CCN2c2nc(C(F)(F)F)cc(C(F)(F)F)n2)c(F)c1F` [Compound 518, (1S)-2-[4,6-bis(trifluoromethyl)pyrimidin-2-yl]-6-bromo-1-(2,3-difluoro-4-methylphenyl)-2,3,4,9-tetrahydro-1H-pyrido[3,4-b]indole] displayed a half-maximal inhibitory concentration (IC50) of 0.8 nM.

Compound `Fc1cc(-n2ccnc2)ccc1C1c2[nH]c3ccc(Cl)cc3c2CCN1c1ncccn1` (stereo not drawn) [Compound 274, 6-chloro-1-[2-fluoro-4-(1H-imidazol-1-yl)phenyl]-2-(pyrimidin-2-yl)-2,3,4,9-tetrahydro-1H-pyrido[3,4-b]indole] returned an IC50 of 58.5 nM.

`Cc1ccc([C@H]2c3[nH]c4ccc(Cl)cc4c3CCN2c2nc(C(F)(F)F)nc(C(F)(F)F)n2)cc1` [Compound 386, (1S)-2-[4,6-bis(trifluoromethyl)-1,3,5-triazin-2-yl]-6-chloro-1-(4-methylphenyl)-2,3,4,9-tetrahydro-1H-pyrido[3,4-b]indole] registered a concentration for half-maximal inhibition (IC50) of 0.3 nM.

Compound `Cc1cnc(N2CCc3c([nH]c4ccc(Cl)cc34)C2c2ccc(F)cc2)nc1` (stereo not drawn) [Compound 2, 6-chloro-1-(4-fluorophenyl)-2-(5-methylpyrimidin-2-yl)-2,3,4,9-tetrahydro-1H-pyrido[3,4-b]indole] returned an IC50 of 60.6 nM.

In turn, `Cc1ccc(C2c3[nH]c4ccc(Cl)cc4c3CCN2c2nncc(C(F)(F)F)n2)c(F)c1F` (stereo not drawn) [Compound 403, 6-chloro-1-(2,3-difluoro-4-methylphenyl)-2-[5-(trifluoromethyl)-1,2,4-triazin-3-yl]-2,3,4,9-tetrahydro-1H-pyrido[3,4-b]indole] had an IC50 of 0.7 nM.

`CCCCN(CCCC)c1nc(C)nc(N2CCc3c([nH]c4ccc(Cl)cc34)C2c2cnc(N3CCOCC3)nc2)n1` (stereo not drawn) [Compound 315, N,N-dibutyl-4-{6-chloro-1-[2-(morpholin-4-yl)pyrimidin-5-yl]-1,3,4,9-tetrahydro-2H-pyrido[3,4-b]indol-2-yl}-6-methyl-1,3,5-triazin-2-amine] showed a 50% inhibitory concentration (IC50) of 11.7 nM.

Compound `N#Cc1nc(N2CCc3c([nH]c4cc(F)c(Cl)cc34)C2c2cccc(F)c2F)ncc1F` (stereo not drawn) [Compound 183, 2-[6-chloro-1-(2,3-difluorophenyl)-7-fluoro-1,3,4,9-tetrahydro-2H-pyrido[3,4-b]indol-2-yl]-5-fluoropyrimidine-4-carbonitrile] gave a 50% inhibitory concentration (IC50) of 4.5 nM.

The compound `Cc1ccnc(N2CCc3c([nH]c4ccc(Cl)cc34)[C@@H]2c2ccc(C)c(F)c2F)n1` [Compound 234, (1S)-6-chloro-1-(2,3-difluoro-4-methylphenyl)-2-(4-methylpyrimidin-2-yl)-2,3,4,9-tetrahydro-1H-pyrido[3,4-b]indole] showed a concentration for half-maximal inhibition (IC50) of 0.8 nM.

Regarding `Cc1nc(N2CCc3c([nH]c4cc(F)c(Cl)cc34)C2c2cccc(F)c2F)nc(C)c1F` (stereo not drawn) [Compound 112, 6-chloro-1-(2,3-difluorophenyl)-7-fluoro-2-(5-fluoro-4,6-dimethylpyrimidin-2-yl)-2,3,4,9-tetrahydro-1H-pyrido[3,4-b]indole], the midpoint of inhibition, the IC50, lay at 3.8 nM.

`Cc1ccc(C2c3[nH]c4ccc(F)c(F)c4c3CCN2c2ncc(Cl)cn2)cc1` (stereo not drawn) [Compound 84, 2-(5-chloropyrimidin-2-yl)-5,6-difluoro-1-(4-methylphenyl)-2,3,4,9-tetrahydro-1H-pyrido[3,4-b]indole]: 65.6 nM corresponded to half-maximal inhibition (IC50).

Values taken from patent US20250186437A1, “CARBOLINE COMPOUNDS AND USE THEREOF” (PTC Therapeutics, Inc., priority 2021, published 2025).
